The record followed here is US8097656B2, “Nitrogenated trans-stilbene analogs, method for the obtention and medical applications thereof” (Dominion Pharmakine S.L, priority 2005, dated 2012).

In one test the test system is MB16-Luc cells. The test can be described thus: Hepatic retention of luciferase-transfected MB16 cells (MB16-Luc). Format: in vivo, C57BL/6J mice. As to conditions: 2 doses of 1 mg/kg/day nasogastrically; 18 h after intrasplenic injection; control 1.80 ± 0.23. An excerpt: Test of hepatic retention of luciferase-transfected MB16 cells (MB16-Luc) (see Table 1). B16M Cells were stably transfected by lipofection as described previously (Rubio N, Martinez-Villacampa M, Blanco J. Traffic to lymph nodes of PC-3 prostate tumor cells in nude mice visualized using the luciferase gene as a tumor cell marker. Lab Invest 1998; 78:1315-1325), using plasmid pRc/cytomegalovirus-luciferase, a construct containing the Photinus pyralis luciferase gene coding sequence under transcriptional control of the cytomegalovirus promoter and the neomycin resistance gene to the G418 antibiotic (Sigma Chemicals Co.). A total of 300,000 viable B16M-Luc cells were intrasplenically injected into C57BL/6J mice (10 mice per group) which had previously been nasogastrically administered 2 doses of 1 mg/kg/day of compound to be tested. One group of mice received resveratrol, the other group of mice received azaresveratrol. […] Production of light was measured using a luminometer designed to read individual samples tubes (bioorbit, LKB Wallac; Turku, Finland) after the addition of 100 μl of luciferase assay reagent to 20 μl of each liver homogenate. […] Linearity and sensitivity of light detection in liver homogenates and influence of hepatic microenvironment on luciferase activity of B16M-Luc were also evaluated as described previously (Rubio et al, 1998).

For another test, the system named is MB16 cells. Put plainly: Adhesion of IL-18-treated MB16 cells to HSE cell monolayer. Format: cell-based, murine. As to conditions: for Adhesion of MB16 cells treated with IL-18 to HSE cells (% adhered cells): 2.5 μM for 30 min prior to IL-18, control 24.4 ± 4, IL-18 alone 54 ± 6.0; for Increase of the percentage of adhesion of tumor cells to the HSE in response to IL-18 (in words): 2.5 μM for 30 minutes prior to IL-18. An excerpt: Isolation of primary murine cultures of hepatic sinusoidal endothelial (HSE) cells. The hepatic sinusoidal cells were isolated from C57BL/6J mice (males, aged 6-8 weeks) supplied by IFFA Credo (L'Arbreole, France), followed by a purification and identification of the HSE cells following the protocol described by Vidal-Vanaclocha et al. (1993) [Vidal-Vanaclocha, F., Rocha, M., Asumendi, A. & Barbera-Guillem, E. Isolation and enrichment of two sublobular compartment-specific endothelial cell subpopulations from liver sinusoids. Hepatology, 1993, 18, 328-339]. Stable primary cultures of HSE cells were obtained after seeding the cells on a type I collagen substrate (Sigma Chemicals Co, St Louis, Mo.), and the cultures were maintained in DMEM-HCO^3−, penicillin (100 U/ml), streptomycin (100 μg/ml), supplemented with 10% fetal bovine serum at 37° C. with 5% CO2 in atmosphere at 98% humidity.
MB16 cell adhesion to the monolayer of HSE cells in culture. The endothelial cells were isolated 24 hours prior to the adhesion test and were seeded on 24-well plate, maintaining them a minimum of 4 hours in serum-free medium before incubating them with DMEM in the presence or not of MC-MB16 for 8 hours. The synthesized compounds (JE2:2 see FIG. 6; JEM2:2-01 and JEM2:1-02 see FIG. 8A; YEF02, YEF03, YEF07, YEF05B, YEF07B and YEF05H see FIG. 10) were added to a 2.5 μM concentration prior to the MC-MB16. On the other hand, the MB16 cells were marked with 40 μg/ml from the fluorescent probe BCECF-AM (carboxyfluorescein, 2′,7′-bis-(2-carboxy-ethyl)-5-(6)carboxyfluorescein aminoxymethyl ester) supplied by Molecular Probes Inc. (Oregon, USA). Afterward, a washing process was performed with DMEM-HCO3−—to remove the excess fluorochromium, the number of viable cells being calculated by means of the trypan blue exclusion test and resuspended to a concentration of 2×10^5 cells/ml. Lastly, 1 ml of the MB16 cell suspension was added to each well on the primary HSE cell culture plate. The co-culture plates were incubator-incubated at 37° C. for 8 minutes. The percentage of cellular adhesion was calculated by means of the a fluorescence measurement system described by Vidal-Vanaclocha et al. (1994) [Vidal-Vanaclocha, F., Amézaga, C., Asumendi, A., Kaplanski, G. & Dinarello, C. A. Interleukin-1 receptor blockade reduces the number and size of murine B16 melanoma hepatic metastases. Cancer Research, 1994, 54, 2667-2672]. In the experiments with IL-18, the MB16 cells were incubated with 10 ng/ml of IL-18 for 4 hours prior to being marked with BCECF-AM and were adhered to the HSE cell plate. The results in the figures are given as values related to the adhesion percentages of the untreated HSE cells.

The test system of another test is HSE cells. Put plainly: Migration of HSE cells treated with MC-MA375 (modified Boyden chamber). Format: cell-based, human. The conditions noted are these: for Increase in migration of HSE induced by MC-A375 (in words): 12.5 μM 30 min prior to MC-A375; for Migration of HSE's treated with MC-MA375 (No. cells per field): 12.5 μM, 30 min before MC-MA375, 24 h, control 10.0 ± 4, treatment alone 35.0 ± 8.0. An excerpt: isolation of primary human cultures of hepatic sinusoidal endothelial (HSE) hepatic stellate cells (HSCs). The primary cultures of human HSE and HSC cells were obtained by non-tumoral hepatic tissue serial profusion with collagenase and pronase solutions, followed by Nycodenz gradient and seeded on 24-well plates (0.5×10^4 cells/cm^2) in DMEM. supplemented with 10% FBS.
Human HSC and HSE cell migration tests (see Table 3). Primary cultured hepatic endothelial cells (25×10^5) or hepatic stellate cells (2×10^4) were seeded in the upper compartment of modified Boyden chambers equipped with a polycarbonate filter of an 8 μm pore size. Some cells were incubated in the presence or absence of 12.5 μM of azaresveratrol, 30 minutes prior to adding conditioned tumor medium. Twenty-four (24) hours later (in the case of the endothelial cells) or 4 hours later (in the case of hepatic star cells) the number of cells having passed through the membrane was determined. The cells were fixed, were stained with hematoxylin eosine and were counted under the microscope (20×) in 5 fields per well.

With `Oc1ccc(C=Cc2cc(O)cc(O)c2)cc1` [resveratrol, reference compound], in the test with MB16-Luc cells, the “Hepatic retention of MB16 Luc cells (No. cells × 10^6)” value amounted to 1.05 ± 0.3 No. cells × 10^6. For the same compound, in the test on MB16 cells, the “Adhesion of MB16 cells treated with IL-18 to HSE cells (% adhered cells)” value was 30 ± 4.0 % adhered cells and the “Increase of the percentage of adhesion of tumor cells to the HSE in response to IL-18 (in words)” value is listed as “significantly (P<0.01) inhibited”. Moreover, in the test with HSE cells, the “Increase in migration of HSE induced by MC-A375 (in words)” value was “abolished” and the “Migration of HSE's treated with MC-MA375 (No. cells per field)” value turned out to be 13.5 ± 5.0 No. cells per field.

Turning to `Oc1ccc(/N=C/c2cc(O)cc(O)c2)cc1` [azaresveratrol, 5-((E)-(4-Hydroxyphenylimino)methyl)benzene-1,3-diol], in the test with MB16-Luc cells, the “Hepatic retention of MB16 Luc cells (No. cells × 10^6)” value came to 0.98 ± 0.24 No. cells × 10^6. Moreover, in the test with MB16 cells, the “Adhesion of MB16 cells treated with IL-18 to HSE cells (% adhered cells)” value is recorded as 31 ± 4.0 % adhered cells and the “Increase of the percentage of adhesion of tumor cells to the HSE in response to IL-18 (in words)” value is recorded as “significantly (P<0.01) inhibited”. In the test with HSE cells, the “Increase in migration of HSE induced by MC-A375 (in words)” value was “abolished” and the “Migration of HSE's treated with MC-MA375 (No. cells per field)” value was found to be 15.5 ± 30 No. cells per field.
